Results published in patent publication US20210077585A1, “METHOD OF TREATMENT OF IMMUNE CHECKPOINT INHIBITOR-RELATED IMMUNE ADVERSE EFFECTS” (priority 2019, published 2021).
Entries after “also recorded” stand apart in the source; their conditions may differ. No end group written: not given here.

Assays:
[1] = system: murine dextran sodium sulfate (DSS)-induced colitis; assay: Dextran sodium sulfate (DSS)-induced colitis in mice; format: in vivo, C57BL6 mice
Experimental: (§1) Inbred C57BL6 mice, 8 to 12 weeks old, were purchased from Charles River Breeding Laboratories (Calco, Italy). Experiments were performed following protocols approved by the institutional animal committee and in accordance with European Economic Community Council Directive as well as institutional animal care and use guidelines.
DSS is a water soluble, negatively charged sulfated polysaccharide with a highly variable molecular weight ranging from 5 to 1400 kDa. Murine colitis results from administration of 40-50 kDa DSS added to drinking water. […] We have added 40-50 kDa DSS to sterilized drinking water at 3% for a period of 6 days to induce acute colitis. Concomitantly, Tα1 at 200 μg/kg was intraperitoneally injected daily, as illustrated in FIG. 1A. Control mice receive vehicle alone. Surviving mice were sacrificed at 10 days after the initiation of colitis.
(§2) In both models, animals were monitored daily for appearance of diarrhea, fecal blood, loss of body weight and survival. At the end of the experiment, surviving mice were sacrificed, the colon was excised, and evaluated for macroscopic damage and local immune parameters
(§3) Freshly isolated colons were fixed in formalin and embedded in paraffin. H&E staining was performed using a standard protocol. For the quantitative histological analysis, five criteria were used to grade each section of the intestine: (i) severity of inflammation, (ii) percent of area affected by inflammation, (iii) degree of hyperplasia, (iv) depth of the lesion, and (v) ulceration.
The levels of cytokines in the colon homogenates were determined by specific ELISA (R&D Systems).
(§4) Student's t-test, one- or two-way ANOVA with Bonferroni post-hoc test were used to determine the statistical significance. Significance was defined as p<0.05. Data are pooled results (mean±SEM) or representative images from three experiments.

[2] = system: murine model of checkpoint inhibitor-mediated colitis (CIC); assay: Checkpoint inhibitor-mediated colitis (CIC) model (DSS + anti-CTLA-4 mAb) in mice; format: in vivo, C57BL6 mice
Experimental: as §1
The mice received 3% DSS in their drinking water for 8 days and 100 μg of anti-CTLA-4 mAb (BioXcell, USA) or isotype control antibody intraperitoneally at the beginning of the experiment (day 0) and 4 days after (day +4). Surviving mice were sacrificed at 16 days. Tα1 at 200 μg/kg was intraperitoneally injected every other day, as illustrated in FIG. 2A.
as §2, §3, §4

B16 melanoma = assay: Tumor challenge with B16 melanoma under anti-CTLA-4 mAb; format: in vivo, mice; settings: 100 μg anti-CTLA-4 mAb days 0, 6, 10 with Tα1 200 μg/kg i.p.; FIG. 2E
Experimental: B16-F0 (ATCC® CRL-6322™ were cultured in RPMI Medium1640 (Gibco, Life Technologies, USA) containing 10% FBS (Gibco, USA), 100 U/mL penicillin, and 100 μg/mL streptomycin, at 37° C. in a humidified atmosphere of 5% CO2. 2×10^5 B16 tumor cells were subcutaneously injected into the right flanks of the mice. The mice were injected intraperitoneally with 100 μg of anti-CTLA-4 mAb, at 0, 6, and 10 days post-tumor implantation and concomitantly with Tα1 at 200 μg/kg intraperitoneally. Tumor size was measured with a caliper and calculated as described (Wang et al., 2019).

[3] = steroid and infliximab refractory cases; recent reports; cited from earlier work
[4] = ELISA of colon homogenates, FIG. 1F

Substance	loss of body weight ([1]; 3% DSS 6 days, Tα1 200 μg/kg intraperitoneally daily, FIG. 1B)	production of IL-10 in the colon ([1]; ELISA of colon homogenates, FIG. 1E)	production of pro-inflammatory cytokine IL-1S [1, 4]	production of pro-inflammatory cytokine IL-17A [1, 4]	expression of IDO1 in the colon ([1]; RT-PCR, at sacrifice, FIG. 1E)	survival of mice ([1]; Tα1 200 μg/kg i.p. daily, FIG. 1C)	colon histopathology ([1]; Tα1 200 μg/kg i.p. daily, at sacrifice, FIG. 1D)	loss of body weight ([2]; CIC model (3% DSS 8 days + anti-CTLA-4 mAb), Tα1 200 μg/kg i.p. every other day, FIG. 2B)	survival of mice ([2]; CIC model, Tα1 200 μg/kg i.p. every other day, FIG. 2C)	architecture structure of the colon in surviving mice ([2]; CIC model, compared to untreated animals, FIG. 2D)	mice surviving at 16 days post initiation of colitis ([2]; CIC model, time at which untreated mice have all died, FIG. 2C)	growth kinetics of B16 melanoma tumors / antitumoral efficacy afforded by anti-CTLA-4 mAb (B16 melanoma)	efficacy in refractory CIC [3]
Thymosin alpha 1 (Ac-SDAAVDTSSEITTKDLKEKKEVVEEAEN; UniProt P06454 2-29, looked up) [Tα1, naturally-occurring polypeptide of 28 amino acid; from CRIBI Biotechnology, supplied as purified sterile, lyophilized, acetylated polypeptide]	prevented the loss of body weight	induced	decreased the production	decreased the production	induced the expression of IDO1	increased survival of mice	ameliorated colon histopathology	not significantly prevented	significantly increased the survival of mice	recovery of the normal architecture structure of the colon	majority of mice surviving	does not affect the antitumoral efficacy; also recorded: did not affect the growth kinetics of the tumors	–
Vedolizumab: therapy reported as more gut specific and efficacious in steroid and infliximab refractory checkpoint inhibitor colitis	–	–	–	–	–	–	–	–	–	–	–	–	efficacious in steroid and infliximab refractory cases
